Earlier results as cited in publication PMC2716802 (Structure (London, England : 1993), 2008).
pKi: −log10 of the molar value. No end group written: not given here.

Molecular target: BoNT/A LC (Clostridium botulinum, UniProt P0DPI0)
Sequence (P0DPI0 2-448 limits assumed): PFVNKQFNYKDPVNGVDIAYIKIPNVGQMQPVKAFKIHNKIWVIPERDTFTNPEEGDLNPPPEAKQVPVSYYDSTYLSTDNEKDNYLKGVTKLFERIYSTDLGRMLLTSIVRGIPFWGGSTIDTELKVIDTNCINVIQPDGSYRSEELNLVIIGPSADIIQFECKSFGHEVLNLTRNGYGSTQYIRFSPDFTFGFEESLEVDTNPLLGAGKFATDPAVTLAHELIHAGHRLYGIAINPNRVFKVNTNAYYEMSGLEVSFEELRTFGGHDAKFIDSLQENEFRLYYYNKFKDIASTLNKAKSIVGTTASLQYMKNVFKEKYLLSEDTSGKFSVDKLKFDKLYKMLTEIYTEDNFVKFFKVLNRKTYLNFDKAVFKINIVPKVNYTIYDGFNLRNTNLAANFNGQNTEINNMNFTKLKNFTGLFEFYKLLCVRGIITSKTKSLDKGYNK

In the case of Ac-CRATKML, the pKi is given as 5.72.
